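Assay format: 96-well plates, 48-hour exposure. Definition used: TGI = concentration required for complete inhibition of growth.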
Experiments:
Assay in all cases: DTP human tumour cell line panel, 48 h
A498 renal = tested on: A498 renal
A549 NSCLC = tested on: A549 NSCLC
ACHN renal = tested on: ACHN renal
CAKI-1 renal = tested on: CAKI-1 renal
DU-145 prostate = tested on: DU-145 prostate
HOP-62 NSCLC = tested on: HOP-62 NSCLC
HOP-92 NSCLC = tested on: HOP-92 NSCLC
K-562 leukemia = tested on: K-562 leukemia
LOX IMVI melanoma = tested on: LOX IMVI melanoma
MDA-MB-231 breast = tested on: MDA-MB-231 breast
MOLT-4 leukemia = tested on: MOLT-4 leukemia
NCI-H23 lung = tested on: NCI-H23 lung
NCI-H460 lung = tested on: NCI-H460 lung
RPMI-8226 leukemia = tested on: RPMI-8226 leukemia
RXF 393 renal = tested on: RXF 393 renal
SNB-19 CNS = tested on: SNB-19 CNS
SNB-75 CNS = tested on: SNB-75 CNS
TK-10 renal = tested on: TK-10 renal

Compound | TGI (A498 renal) | TGI (A549 NSCLC) | TGI (ACHN renal) | TGI (CAKI-1 renal) | TGI (DU-145 prostate) | TGI (HOP-62 NSCLC) | TGI (HOP-92 NSCLC) | TGI (K-562 leukemia) | TGI (LOX IMVI melanoma) | TGI (MDA-MB-231 breast) | TGI (MOLT-4 leukemia) | TGI (NCI-H23 lung) | TGI (NCI-H460 lung) | TGI (RPMI-8226 leukemia) | TGI (RXF 393 renal) | TGI (SNB-19 CNS) | TGI (SNB-75 CNS) | TGI (TK-10 renal)
Cc1nc(-n2[nH]c(C)c(CCO)c2=O)[nH]c(=O)c1CCO | > 100 µM | > 100 µM | > 100 µM | > 100 µM | > 100 µM | > 100 µM | > 100 µM | > 100 µM | > 100 µM | > 100 µM | > 100 µM | > 100 µM | > 100 µM | > 100 µM | > 100 µM | > 100 µM | > 100 µM | > 100 µM
O=C(N/N=C/c1ccc([N+](=O)[O-])cc1)c1cccc2nc3ccccc3nc12 | > 100 µM | > 100 µM | > 73.8 µM | > 100 µM | > 100 µM | 22.7 µM | > 87.3 µM | > 100 µM | > 100 µM | > 100 µM | > 100 µM | > 100 µM | > 64.4 µM | > 100 µM | > 80.7 µM | > 100 µM | > 100 µM | > 69.2 µM
O=C1NC(=S)NC(=O)C1C(c1ccc([N+](=O)[O-])cc1)C1C(=O)NC(=S)NC1=O | > 100 µM | > 100 µM | > 100 µM | > 100 µM | > 100 µM | > 100 µM | > 100 µM | > 100 µM | > 100 µM | > 100 µM | > 100 µM | > 100 µM | > 100 µM | > 100 µM | > 100 µM | > 100 µM |  | > 100 µM
C=CCOc1ccc(/C(N=Nc2ccccc2)=N/NC(=O)c2ccccc2)cc1OC | > 100 µM | > 100 µM | > 100 µM | > 100 µM | > 100 µM | > 100 µM | > 100 µM |  | > 100 µM | > 100 µM | > 100 µM | > 100 µM | > 100 µM |  | > 100 µM | > 100 µM | > 100 µM | > 100 µM
N#Cc1c(-c2ccc(Cl)cc2)c(C#N)c(=O)n(NS(=O)(=O)c2ccccc2)c1S | > 100 µM | > 100 µM | 85.3 µM | 66.6 µM | > 100 µM |  | > 100 µM | > 100 µM | 50.6 µM | 75.2 µM | > 100 µM | > 100 µM | 46 µM | 75.6 µM | > 100 µM |  | > 100 µM | 70.6 µM
CC1=C(O)C(=O)C[C@]2(C)[C@H]3CC=C4[C@@H]5CC(C)(C)CC[C@@H]5C(=O)[C@H](O)[C@@]4(C)[C@]3(C)CC[C@@H]12 | > 50 µM | > 50 µM | > 50 µM | > 50 µM | > 50 µM | > 50 µM | 28.5 µM |  |  | > 50 µM | > 50 µM | > 50 µM | > 50 µM | > 50 µM | 37.9 µM | > 50 µM | > 50 µM | > 50 µM
Cc1cc(OCc2nn(CN3CCN(C)CC3)c(=S)n2/N=C/c2ccc(-c3ccc(Cl)cc3Cl)o2)ccc1Cl | > 100 µM |  | > 100 µM | > 100 µM | > 100 µM | > 100 µM | 95.9 µM | > 100 µM | > 100 µM | > 100 µM | > 100 µM | > 100 µM | > 100 µM | > 100 µM | 41.3 µM |  |  | > 100 µM
COC(=O)C1CC=C(SC(=O)c2ccccc2)N1C(=O)c1ccccc1 (configuration not stated) | > 100 µM | > 100 µM | > 100 µM | > 100 µM | > 100 µM | > 100 µM | > 100 µM | > 100 µM |  | > 100 µM | > 100 µM | > 100 µM | > 100 µM | > 100 µM | > 100 µM | > 100 µM | > 100 µM | > 100 µM
CCOC(=O)c1sc2nc(SC)nc3c2c1NCN3c1ccc2c(c1)OCCCO2 | 45.8 µM | > 100 µM | > 100 µM | > 100 µM | > 100 µM | > 100 µM | > 100 µM | > 100 µM | > 100 µM | > 100 µM | > 100 µM | > 100 µM | > 100 µM | > 100 µM | 35.6 µM | > 100 µM |  | > 100 µM
Cc1nc2ccc(F)cc2c2c1CCO2 | > 100 µM | > 100 µM | > 100 µM | 96 µM | > 100 µM |  | > 100 µM | > 100 µM | > 100 µM | 93.6 µM | > 100 µM | > 100 µM | > 100 µM | > 100 µM | > 100 µM | > 100 µM | > 100 µM | > 100 µM
OCC1OC(Oc2cc(O)cc(/C=C/c3ccc(O)cc3)c2)C(O)C(O)C1O (configuration not stated) | > 100 µM | > 100 µM | > 100 µM | > 100 µM | > 100 µM | > 100 µM | > 100 µM | > 100 µM | > 100 µM | > 100 µM | > 100 µM |  | > 100 µM | > 100 µM | > 100 µM | > 100 µM | > 100 µM | > 100 µM
CSc1nc(-c2ccc(C)cc2)c(C#N)c(=O)[nH]1 | > 100 µM | > 100 µM | > 100 µM | > 100 µM | > 100 µM | > 100 µM | > 100 µM | > 100 µM |  | > 100 µM | > 100 µM | > 100 µM | > 100 µM | > 100 µM | > 100 µM | > 100 µM | > 100 µM | > 100 µM
CCOC(=O)c1cc(C2CCN(CC(C)CC)C2=S)c(-c2cc(C)no2)[nH]1 (configuration not stated) | > 100 µM | > 100 µM |  | > 100 µM | > 100 µM | > 100 µM | > 100 µM | > 100 µM | > 100 µM | > 100 µM | > 100 µM | > 100 µM | > 100 µM | > 100 µM | > 100 µM | > 100 µM | > 100 µM | 
CC(C)C1OC2(C)OC(=N)C1(C#N)C(C#N)(C#N)C2C (configuration not stated) | > 100 µM | > 100 µM | > 100 µM | 22.8 µM | > 100 µM |  | 34.7 µM | > 100 µM | 41.5 µM | 31.8 µM | > 100 µM | > 100 µM | 33.8 µM |  | > 100 µM |  | > 100 µM | > 100 µM

Source: PubChem BioAssay (NCI)
